Among the data in ChEMBL document CHEMBL1139487, “Discovery of corticotropin releasing factor 2 receptor selective sauvagine analogues for treatment of skeletal muscle atrophy” (J Med Chem, 2005) are EC50, Emax and Selectivity values, retold here.

For test [1], the target named is T1, Corticotropin-releasing factor receptor 1 (Mus musculus, UniProt P35347).
T1 sequence (P35347 whole entry): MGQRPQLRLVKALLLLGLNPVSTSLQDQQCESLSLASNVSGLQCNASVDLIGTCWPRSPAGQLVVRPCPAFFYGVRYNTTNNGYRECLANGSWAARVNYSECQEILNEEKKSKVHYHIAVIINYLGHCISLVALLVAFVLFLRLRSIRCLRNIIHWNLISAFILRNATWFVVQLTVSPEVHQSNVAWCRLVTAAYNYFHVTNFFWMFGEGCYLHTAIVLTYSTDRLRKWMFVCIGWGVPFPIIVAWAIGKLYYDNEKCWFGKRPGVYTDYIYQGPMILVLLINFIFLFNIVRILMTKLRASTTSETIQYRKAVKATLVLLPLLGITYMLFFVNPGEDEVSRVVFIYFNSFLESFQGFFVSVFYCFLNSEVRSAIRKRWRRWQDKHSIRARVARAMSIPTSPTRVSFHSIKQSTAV
Put plainly: In vitro effective concentration for mouse corticotropin releasing factor 1 receptor.

For test [2], the target named is Corticotropin-releasing factor receptor 2 (Mus musculus, UniProt Q60748). Briefly: In vitro effective concentration for mouse corticotropin releasing factor 2 receptor.
In test [3] the target is T2, Corticotropin-releasing factor receptor 1 (Mus musculus) (UniProt P35347).
T2 sequence (whole entry): T1 sequence (P35347 whole entry)
Put plainly: In vitro agonistic activity against mouse corticotropin releasing factor 1 receptor. The test is classed as functional.

Test [4] has as its target Corticotropin-releasing factor receptor 2 (Mus musculus) (UniProt Q60748). Briefly: In vitro agonistic activity against mouse corticotropin releasing factor 2 receptor. The test is classed as functional.
For a further test, the species on record is Mus musculus. Put plainly: Selectivity ratio of EC50s for mouse corticotropin releasing factor receptors 1 and 2.

Bounds are passed on as bounds.

Chain of Corticotropin-releasing factor receptor 2 (Mus musculus) (Q60748 whole entry): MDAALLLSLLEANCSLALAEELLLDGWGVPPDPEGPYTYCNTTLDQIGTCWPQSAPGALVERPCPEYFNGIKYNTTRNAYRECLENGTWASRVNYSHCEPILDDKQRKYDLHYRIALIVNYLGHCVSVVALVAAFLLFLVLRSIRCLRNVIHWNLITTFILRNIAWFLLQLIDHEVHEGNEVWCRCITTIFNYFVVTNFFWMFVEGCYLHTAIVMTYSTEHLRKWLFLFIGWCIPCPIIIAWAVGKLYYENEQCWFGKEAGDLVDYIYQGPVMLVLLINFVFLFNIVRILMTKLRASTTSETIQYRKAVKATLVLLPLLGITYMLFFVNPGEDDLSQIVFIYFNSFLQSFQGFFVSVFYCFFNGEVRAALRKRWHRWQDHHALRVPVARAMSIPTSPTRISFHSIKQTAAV
Chain of Corticotropin-releasing factor receptor 2 (Q60748 whole entry): as above

For `CC[C@H](C)[C@H](NC(=O)[C@@H](NC(=O)[C@H](CC(=O)O)NC(=O)[C@H](CC(C)C)NC(=O)[C@H](CC(C)C)NC(=O)[C@H](CC(C)C)NC(=O)[C@H](CCCN=C(N)N)NC(=O)[C@H](CC(N)=O)NC(=O)[C@H](CC(N)=O)NC(=O)[C@H](C)NC(=O)[C@H](C)NC(=O)[C@H](CCC(N)=O)NC(=O)[C@H](CCC(N)=O)NC(=O)[C@H](CCCCN)NC(=O)[C@H](CCC(=O)O)NC(=O)[C@H](CCCCN)NC(=O)[C@H](CCC(=O)O)NC(=O)[C@H](CCC(N)=O)NC(=O)[C@H](CCCCN)NC(=O)[C@H](CCC(=O)O)NC(=O)[C@@H](NC(=O)[C@H](CCC(=O)O)NC(=O)[C@@H](NC(=O)[C@H](CCSC)NC(=O)[C@H](CCCCN)NC(=O)[C@H](CCCN=C(N)N)NC(=O)[C@H](CC(C)C)NC(=O)[C@H](CC(C)C)NC(=O)[C@H](Cc1ccccc1)NC(=O)[C@H](C)NC(=O)[C@@H]1CCCN1C(=O)[C@H](CC(C)C)NC(=O)[C@H](CC(=O)O)NC(=O)[C@@H](NC(=O)[C@H](CO)NC(=O)[C@@H](NC(=O)[C@@H]1CCCN1C(=O)[C@@H]1CCCN1C(=O)CNC(=O)[C@@H]1CCC(=O)N1)[C@@H](C)CC)[C@@H](C)CC)[C@@H](C)CC)[C@@H](C)CC)[C@@H](C)O)C(=O)O`, the EC50 stood at 384 nM in test [1] and 9.4 nM in test [2]. The Emax worked out at 95% in test [3] and 100% in test [4]. In the test filed under Mus musculus, the Selectivity stood at 41.

On to `CC[C@H](C)[C@H](NC(=O)[C@@H](NC(=O)[C@H](CC(=O)O)NC(=O)[C@H](CC(C)C)NC(=O)[C@H](CC(C)C)NC(=O)[C@H](CC(C)C)NC(=O)[C@H](CCCN=C(N)N)NC(=O)[C@H](CC(N)=O)NC(=O)[C@H](CC(N)=O)NC(=O)[C@H](C)NC(=O)[C@H](C)NC(=O)[C@H](CCC(N)=O)NC(=O)[C@H](CCC(N)=O)NC(=O)[C@H](CCCCN)NC(=O)[C@H](CCC(=O)O)NC(=O)[C@H](CCCCN)NC(=O)[C@H](CCC(=O)O)NC(=O)[C@H](CCC(N)=O)NC(=O)[C@H](CCCCN)NC(=O)[C@H](CCC(=O)O)NC(=O)[C@@H](NC(=O)[C@H](CCC(=O)O)NC(=O)[C@@H](NC(=O)[C@H](CCSC)NC(=O)[C@H](CCCCN)NC(=O)[C@H](CCCN=C(N)N)NC(=O)[C@H](CC(C)C)NC(=O)[C@H](CC(C)C)NC(=O)[C@H](Cc1ccccc1)NC(=O)[C@H](CC(C)C)NC(=O)[C@@H]1CCCN1C(=O)[C@H](CC(C)C)NC(=O)[C@H](CC(=O)O)NC(=O)[C@@H](NC(=O)[C@H](CO)NC(=O)[C@@H](NC(=O)[C@@H]1CCCN1C(=O)[C@@H]1CCCN1C(=O)CNC(=O)[C@@H]1CCC(=O)N1)[C@@H](C)CC)[C@@H](C)CC)[C@@H](C)CC)[C@@H](C)CC)[C@@H](C)O)C(=O)O`, for which the EC50 stood at 103 nM in test [1] and 10 nM in test [2]. Moreover, the Emax in test [3] is 93%; in test [4], 88%. In addition, the Selectivity in the test listed under Mus musculus worked out at 10.

Turning to `CC[C@H](C)[C@H](NC(=O)[C@@H](NC(=O)[C@H](CC(=O)O)NC(=O)[C@H](CC(C)C)NC(=O)[C@H](CC(C)C)NC(=O)[C@H](CC(C)C)NC(=O)[C@H](CCCN=C(N)N)NC(=O)[C@H](CC(N)=O)NC(=O)[C@H](CC(N)=O)NC(=O)[C@H](C)NC(=O)[C@H](C)NC(=O)[C@H](CCC(N)=O)NC(=O)[C@H](CCC(N)=O)NC(=O)[C@H](CCCCN)NC(=O)[C@H](CCC(=O)O)NC(=O)[C@H](CCCCN)NC(=O)[C@H](CCC(=O)O)NC(=O)[C@H](CCC(N)=O)NC(=O)[C@H](CCCCN)NC(=O)[C@H](CCC(=O)O)NC(=O)[C@@H](NC(=O)[C@H](CCC(=O)O)NC(=O)[C@@H](NC(=O)[C@H](CCSC)NC(=O)[C@H](CCCCN)NC(=O)[C@H](CCCN=C(N)N)NC(=O)[C@H](CC(C)C)NC(=O)[C@H](CC(C)C)NC(=O)[C@@H](NC(=O)[C@H](CC(C)C)NC(=O)[C@@H]1CCCN1C(=O)[C@H](CC(C)C)NC(=O)[C@H](CC(=O)O)NC(=O)[C@@H](NC(=O)[C@H](CO)NC(=O)[C@@H](NC(=O)[C@@H]1CCCN1C(=O)[C@@H]1CCCN1C(=O)CNC(=O)[C@@H]1CCC(=O)N1)[C@@H](C)CC)[C@@H](C)CC)[C@@H](C)CC)[C@@H](C)CC)[C@@H](C)CC)[C@@H](C)O)C(=O)O`, the results for the concentration giving a half-maximal response (EC50) in test [1] and in test [2] were 106 nM and 5 nM, respectively. Further, the Emax was determined as 94% in test [3] and 96% in test [4]. For the same molecule, the Selectivity in the test listed under Mus musculus worked out at 21.

`CC[C@H](C)[C@H](NC(=O)[C@@H](NC(=O)[C@H](CC(=O)O)NC(=O)[C@H](CC(C)C)NC(=O)[C@H](CC(C)C)NC(=O)[C@H](CC(C)C)NC(=O)[C@H](CCCN=C(N)N)NC(=O)[C@H](CC(N)=O)NC(=O)[C@H](CC(N)=O)NC(=O)[C@H](C)NC(=O)[C@H](C)NC(=O)[C@H](CCC(N)=O)NC(=O)[C@H](CCC(N)=O)NC(=O)[C@H](CCCCN)NC(=O)[C@H](CCC(=O)O)NC(=O)[C@H](CCCCN)NC(=O)[C@H](CCC(=O)O)NC(=O)[C@H](CCC(N)=O)NC(=O)[C@H](CCCCN)NC(=O)[C@H](CCC(=O)O)NC(=O)[C@@H](NC(=O)[C@H](CCC(=O)O)NC(=O)[C@@H](NC(=O)[C@H](CCSC)NC(=O)[C@H](CCCCN)NC(=O)[C@H](CCCN=C(N)N)NC(=O)[C@H](CC(C)C)NC(=O)[C@H](CC(C)C)NC(=O)[C@@H](NC(=O)[C@@H](NC(=O)[C@@H]1CCCN1C(=O)[C@H](CC(C)C)NC(=O)[C@H](CC(=O)O)NC(=O)[C@@H](NC(=O)[C@H](CO)NC(=O)[C@@H](NC(=O)[C@@H]1CCCN1C(=O)[C@@H]1CCCN1C(=O)CNC(=O)[C@@H]1CCC(=O)N1)[C@@H](C)CC)[C@@H](C)CC)[C@@H](C)O)[C@@H](C)CC)[C@@H](C)CC)[C@@H](C)CC)[C@@H](C)O)C(=O)O`: the EC50 in test [1] is above 1000 nM; in test [2], 19.1 nM. The Emax in test [3] came to 42%; in test [4], 94%. The Selectivity in the test listed under Mus musculus is above 52.

On to `CC[C@H](C)[C@H](NC(=O)[C@@H](NC(=O)[C@H](CC(=O)O)NC(=O)[C@H](CC(C)C)NC(=O)[C@H](CC(C)C)NC(=O)[C@H](CC(C)C)NC(=O)[C@H](CCCN=C(N)N)NC(=O)[C@H](CC(N)=O)NC(=O)[C@H](CC(N)=O)NC(=O)[C@H](C)NC(=O)[C@H](C)NC(=O)[C@H](CCC(N)=O)NC(=O)[C@H](CCC(N)=O)NC(=O)[C@H](CCCCN)NC(=O)[C@H](CCC(=O)O)NC(=O)[C@H](CCCCN)NC(=O)[C@H](CCC(=O)O)NC(=O)[C@H](CCC(N)=O)NC(=O)[C@H](CCCCN)NC(=O)[C@H](CCC(=O)O)NC(=O)[C@@H](NC(=O)[C@H](CCC(=O)O)NC(=O)[C@@H](NC(=O)[C@H](CCSC)NC(=O)[C@H](CCCCN)NC(=O)[C@H](CCCN=C(N)N)NC(=O)[C@H](CC(C)C)NC(=O)[C@H](CC(C)C)NC(=O)[C@H](Cc1ccccc1)NC(=O)[C@H](Cc1c[nH]cn1)NC(=O)[C@@H]1CCCN1C(=O)[C@H](CC(C)C)NC(=O)[C@H](CC(=O)O)NC(=O)[C@@H](NC(=O)[C@H](CO)NC(=O)[C@@H](NC(=O)[C@@H]1CCCN1C(=O)[C@@H]1CCCN1C(=O)CNC(=O)[C@@H]1CCC(=O)N1)[C@@H](C)CC)[C@@H](C)CC)[C@@H](C)CC)[C@@H](C)CC)[C@@H](C)O)C(=O)O`, for which the 50% effective concentration (EC50) in test [1] was 80.9 nM; in test [2], 7.8 nM. Moreover, the figures for the Emax in test [3] and in test [4] were 100% and 98%, respectively. The Selectivity in the test filed under Mus musculus worked out at 10.

Consider `CC[C@H](C)[C@H](NC(=O)[C@@H](NC(=O)[C@H](CC(=O)O)NC(=O)[C@H](CC(C)C)NC(=O)[C@H](CC(C)C)NC(=O)[C@H](CC(C)C)NC(=O)[C@H](CCCN=C(N)N)NC(=O)[C@H](CC(N)=O)NC(=O)[C@H](CC(N)=O)NC(=O)[C@H](C)NC(=O)[C@H](C)NC(=O)[C@H](CCC(N)=O)NC(=O)[C@H](CCC(N)=O)NC(=O)[C@H](CCCCN)NC(=O)[C@H](CCC(=O)O)NC(=O)[C@H](CCCCN)NC(=O)[C@H](CCC(=O)O)NC(=O)[C@H](CCC(N)=O)NC(=O)[C@H](CCCCN)NC(=O)[C@H](CCC(=O)O)NC(=O)[C@@H](NC(=O)[C@H](CCC(=O)O)NC(=O)[C@@H](NC(=O)[C@H](CCSC)NC(=O)[C@H](CCCCN)NC(=O)[C@H](CCCN=C(N)N)NC(=O)[C@H](CC(C)C)NC(=O)[C@H](CC(C)C)NC(=O)[C@H](Cc1c[nH]c2ccccc12)NC(=O)[C@H](CCC(N)=O)NC(=O)[C@@H]1CCCN1C(=O)[C@H](CC(C)C)NC(=O)[C@H](CC(=O)O)NC(=O)[C@@H](NC(=O)[C@H](CO)NC(=O)[C@@H](NC(=O)[C@@H]1CCCN1C(=O)[C@@H]1CCCN1C(=O)CNC(=O)[C@@H]1CCC(=O)N1)[C@@H](C)CC)[C@@H](C)CC)[C@@H](C)CC)[C@@H](C)CC)[C@@H](C)O)C(=O)O`, for which the EC50 in test [1] was above 1000 nM; in test [2] it was 21.7 nM. The maximal response (Emax) in test [3] turned out to be 78%; in test [4], 99%. The Selectivity in the test filed under Mus musculus is above 46.

For orientation: EC50 means the concentration at which the effect is half-maximal. Lower therefore signals a more potent agent. A word on the Emax: it is the maximal effect, on the per cent scale that the assay sets.
